From patent publication US20230339981A1, “KRAS G12D MODULATING COMPOUNDS” (priority 2022, published 2023)

Experiments:
[1] = system: AsPC-1 (KRAS G12D) cells; assay: 3D cell viability assay (spheroids, CellTiter-Glo 3D); type: cell-based; details: Homo sapiens, ASPC1, 96 h, AsPC-1 cells, 3D spheroids, 4 days
Method in brief: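 AsPC-1 cells (1000/well) in DMEM with 10% FBS formed spheroids over 3 days at 37 °C in ultra-low attachment plates, then were treated with 1:3 serial dilutions for 4 days. Viability read by CellTiter-Glo 3D luminescence; EC50 as concentration giving 50% signal decrease, sigmoidal fit.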

[2] = system: GP2D (KRAS G12D) cells; assay: 2D cell viability assay (CellTiter-Glo); type: cell-based; details: GP2d, 96 h, 4 days
Method in brief: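 Viability was read by CellTiter-Glo after 4 days at 37 °C of 2D culture of KRAS G12D GP2D cells (1000/well, RPMI, 10% FBS) on pre-spotted threefold compound dilutions. EC50 was fitted with a sigmoidal dose-response model as the point of half-maximal luminescence loss.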

[3] = molecular target: GDP-loaded KRAS G12D (Homo sapiens (Human), UniProt P01116, G12D); assay: KRAS G12D (GDP) biochemical assay (TR-FRET probe displacement); type: binding; details: 2 hours
Method in brief: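 TR-FRET probe displacement: 1:3 DMSO serial dilutions pre-incubated 30 min with GDP-bound KRAS G12D, followed by Eu-streptavidin/probe for 2 h at room temperature (Hepes pH 7.4, NaCl, MgCl2, Tween-20 buffer). IC50 defined as concentration halving TR-FRET ratio, from sigmoidal dose-response fit.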

Chain of GDP-loaded KRAS G12D (P01116-2 other isoform, or with tags, fused parts or gaps G12D): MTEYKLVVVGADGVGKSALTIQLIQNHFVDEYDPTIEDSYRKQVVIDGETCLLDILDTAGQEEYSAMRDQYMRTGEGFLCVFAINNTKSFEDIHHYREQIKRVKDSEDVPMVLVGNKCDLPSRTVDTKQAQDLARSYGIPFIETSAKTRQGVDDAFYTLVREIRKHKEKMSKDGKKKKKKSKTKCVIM

SMILES | EC50 [1] | EC50 [2] | IC50 [3]
C#Cc1c(F)ccc2cc(O)cc(-c3nc4c5c(nc(OC[C@@]67CCCN6C[C@H](F)C7)nc5c3F)N3C[C@H]5CC[C@H](N5)[C@H]3CC4(F)F)c12 [Example 97, 5-ethynyl-6-fluoro-4-((5aR,6S,9R)-1,4,4-trifluoro-12-(((2R,7aS)-2-fluorotetrahydro-1H-pyrrolizin-7a(5H)-yl)methoxy)-4,5,5a,6,7,8,9,10-octahydro-3,10a,11,13,14-pentaaza-6,9-methanonaphtho[1,8-ab]heptalen-2-yl)naphthalen-2-ol] | 55 nM | 7.7 nM | 0.2 nM
C#Cc1c(F)ccc2cc(O)cc(-c3nc4c5c(nc(OCC6(CN7CC8CC8C7)CC6)nc5c3F)N3C[C@H]5CC[C@H](N5)[C@H]3CC4)c12 (stereo partly drawn) [Example 176, 4-((5aR,6S,9R)-12-((1-((3-azabicyclo[3.1.0]hexan-3-yl)methyl)cyclopropyl)methoxy)-1-fluoro-4,5,5a,6,7,8,9,10-octahydro-3,10a,11,13,14-pentaaza-6,9-methanonaphtho[1,8-ab]heptalen-2-yl)-5-ethynyl-6-fluoronaphthalen-2-ol] | 9.8 nM | 0.4 nM | 0.1 nM
C#Cc1c(F)ccc2cc(O)cc(-c3nc4c5c(nc(OCC6(CN7CCC(OC(F)(F)F)CC7)CC6)nc5c3F)N3C[C@H]5CC[C@H](N5)[C@H]3CC4)c12 [Example 106, 5-ethynyl-6-fluoro-4-((5aR,6S,9R)-1-fluoro-12-((1-((4-(trifluoromethoxy)piperidin-1-yl)methyl)cyclopropyl)methoxy)-4,5,5a,6,7,8,9,10-octahydro-3,10a,11,13,14-pentaaza-6,9-methanonaphtho[1,8-ab]heptalen-2-yl)naphthalen-2-ol] | 8.2 nM | 1.9 nM | 0.2 nM
C#Cc1c(F)ccc2cccc(-c3nc4c5c(nc(OC[C@@]67CCCN6C[C@H](F)C7)nc5c3F)N3C[C@H]5CC[C@H](N5)[C@H]3[C@H](C)O4)c12 [Example 116, (5S,5aS,6S,9R)-2-(8-ethynyl-7-fluoronaphthalen-1-yl)-1-fluoro-12-(((2R,7aS)-2-fluorotetrahydro-1H-pyrrolizin-7a(5H)-yl)methoxy)-5-methyl-5a,6,7,8,9,10-hexahydro-5H-4-oxa-3,10a,11,13,14-pentaaza-6,9-methanonaphtho[1,8-ab]heptalene] | 25 nM | 6 nM | 0.6 nM
